Measurements: article PMC7503225, “Repositioning Dequalinium as Potent Muscarinic Allosteric Ligand by Combining Virtual Screening Campaigns and Experimental Binding Assays” (International Journal of Molecular Sciences, 2020)

Key:
[1] = molecular target: T1, hM2 subtype (Homo sapiens, UniProt P08172); assay: Full time course [3H]-NMS dissociation kinetic assay; format: binding; details: versus control, concentration 0.3 μM
T1 construct: expressed in transfected cells; host or cells: CHO cells, stably transfected; membrane fractions
T1 sequence (P08172 1-466): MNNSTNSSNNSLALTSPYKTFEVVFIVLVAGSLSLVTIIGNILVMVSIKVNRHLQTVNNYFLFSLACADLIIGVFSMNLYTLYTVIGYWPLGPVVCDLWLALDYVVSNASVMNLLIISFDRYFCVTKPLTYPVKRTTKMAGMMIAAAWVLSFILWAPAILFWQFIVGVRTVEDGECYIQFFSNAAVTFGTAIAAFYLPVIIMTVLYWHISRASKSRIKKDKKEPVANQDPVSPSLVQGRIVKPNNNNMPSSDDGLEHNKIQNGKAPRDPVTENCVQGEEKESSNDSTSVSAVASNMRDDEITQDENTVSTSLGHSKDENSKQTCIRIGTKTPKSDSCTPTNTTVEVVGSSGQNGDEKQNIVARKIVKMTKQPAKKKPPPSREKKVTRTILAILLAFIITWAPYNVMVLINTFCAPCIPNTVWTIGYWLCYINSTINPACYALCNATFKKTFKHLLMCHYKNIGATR
Procedure: (§1) All tested compounds were purchased from Merck KGaA (Darmstadt, Germany). The radioligand binding experiments were performed with membranes from Chinese Hamster Ovary (CHO) cells stably transfected with the five cloned human muscarinic receptor subtypes (hM1-5). Membrane fractions were prepared according to the protocol, which have been previously described; membranes were stored at −80 °C until use. Nonspecific binding was defined by the radioactivity bound in the presence of 10 µM atropine.
Dissociation binding assays were conducted in assay buffer at room temperature as above described. Membranes were preincubated with 2 nM [^3H]-NMS for 60 min at room temperature (mix membrane). […] Nonspecific binding was measured in separately prepared tubes containing 100 µL of mix membrane plus atropine 10 µM. […]
Radioligand dissociation rates in absence or in presence of the allosteric modulator were analyzed by non linear regression according to the equation for mono-exponential decay using GraphPad Prism 5.02.
(§2) All the results are expressed as means ± SEM obtained from 3-4 independent experiments each one performed in duplicate.

[2] = molecular target: T2, [3H]-NMS-occupied muscarinic hM1 subtype (Homo sapiens, UniProt P11229); assay: biochemical
T2 sequence (P11229 1-460): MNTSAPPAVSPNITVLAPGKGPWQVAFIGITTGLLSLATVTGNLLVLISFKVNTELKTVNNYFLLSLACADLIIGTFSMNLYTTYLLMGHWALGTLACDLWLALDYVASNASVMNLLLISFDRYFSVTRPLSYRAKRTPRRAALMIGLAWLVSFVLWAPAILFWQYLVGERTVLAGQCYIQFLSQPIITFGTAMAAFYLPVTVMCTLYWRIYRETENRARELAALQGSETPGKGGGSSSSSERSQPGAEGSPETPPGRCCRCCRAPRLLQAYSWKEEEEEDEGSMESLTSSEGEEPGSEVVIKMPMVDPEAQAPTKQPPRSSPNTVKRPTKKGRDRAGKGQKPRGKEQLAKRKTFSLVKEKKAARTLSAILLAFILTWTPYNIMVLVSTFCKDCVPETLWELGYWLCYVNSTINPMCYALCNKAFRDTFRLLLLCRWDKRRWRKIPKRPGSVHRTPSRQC
Procedure: as §1
Off-rate assays were performed as described elsewhere to estimate the affinity of the ligands for the [^3H]-NMS-occupied receptor (log Kocc). Briefly, a high concentration of membranes (about 0.1 mg/mL) was incubated with a high concentration of [^3H]-NMS (2 nM) for 60 min at room temperature (mix membrane). Next, 100 µL aliquots were distributed into polypropylene tubes that were empty or in a final volume of 1 mL binding buffer with 1 µM atropine alone and in the presence of a range of concentrations of tested compound (1 nM–0.1 mM).
The effect on the radioligand dissociation of each tested ligand was determined at 0 min and at one time point, which was chosen to be ca 2.5 dissociation half-lives of [^3H]-NMS alone from each subtype receptors. Later (80 min for hM1, 20 min for hM2 and 70 min for hM5), the samples were filtered and counted as previously reported. Non specific binding was measured as previously reported.
as §2

[3] = molecular target: T3, hM4 muscarinic receptor (Homo sapiens, UniProt P08173); assay: Equilibrium inhibition binding with [3H]-NMS, CHO cell membranes; details: [3H]-NMS 0.2 nM, CHO membranes, mean ± SEM of 3-4 experiments; read-out: pKi hM4 (converted)
T3 construct: expressed in transfected cells; host or cells: CHO cells, stably transfected; membrane fractions
T3 sequence (P08173 1-479): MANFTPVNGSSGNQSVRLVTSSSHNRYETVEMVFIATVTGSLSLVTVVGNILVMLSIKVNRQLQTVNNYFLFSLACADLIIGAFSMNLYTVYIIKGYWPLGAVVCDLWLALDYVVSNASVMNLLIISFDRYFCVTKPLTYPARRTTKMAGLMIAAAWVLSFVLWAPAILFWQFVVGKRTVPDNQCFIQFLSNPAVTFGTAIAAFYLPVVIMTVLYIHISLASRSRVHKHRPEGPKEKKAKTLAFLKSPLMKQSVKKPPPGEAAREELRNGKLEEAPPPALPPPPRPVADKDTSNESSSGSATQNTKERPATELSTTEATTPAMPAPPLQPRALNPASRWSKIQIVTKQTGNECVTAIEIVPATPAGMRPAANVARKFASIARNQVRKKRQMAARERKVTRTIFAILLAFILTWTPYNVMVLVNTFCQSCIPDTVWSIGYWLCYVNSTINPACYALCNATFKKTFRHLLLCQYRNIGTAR
How it was run: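 Membranes from CHO cells stably expressing the human subtype (25–70 µg/mL) incubated with [3H]-NMS for 2 h at room temperature, filtered and counted; nonspecific binding set with 10 µM atropine. IC50 from nonlinear fits converted to Ki; 3-4 independent experiments in duplicate.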

[4] = molecular target: five human muscarinic receptors subtypes (hM1–hM5); assay: Equilibrium binding, summary statements over the five subtypes
Procedure: as §1
Aliquots of membranes (25–70 µg/mL) were added and incubated for 2 h at room temperature, filtered through UniFilter GF/B plates (PerkinElmer Life and Analytical Science, Monza, Italy) using a FilterMate cell harvester (PerkinElmer Life and Analytical Science, Monza, Italy). The filters were washed several times with ice-cold MilliQ water. Then, the plates were counted in a β-counter (TopCount NXT microplate scintillation counter, PerkinElmer Life and Analytical Science, Monza, Italy).
Data points from radioligand inhibition binding curve were fitted to models using nonlinear regression equation to determine inhibitor potency (IC50) estimates, which were then converted to Ki values as appropriate.
as §2

[5] = ref DrugBank [16]; cited from earlier work

`Cc1cc(N)c2ccccc2[n+]1CCCCCCCCCC[n+]1c(C)cc(N)c2ccccc21` [dequalinium] gave a t1/2 reduction [1] of 17.3 fold, a Kd [2] of 204 nM and a Ki [3] of 69.2 nM. The “pKi values (muscarinic subtypes overall)” value [4] was “greater than 7.0” and the logP [5] was 0.2.
